Data published in patent US20220079899A1, “COMPOSITIONS AND METHODS FOR TREATING OCULAR CONDITIONS” (The Regents of the University of California, priority 2019, published 2022).

Tested on: calcification in injured hearts of ABCC6-deficient mice
Test: Calcification after heart injury in a mouse model of PXE
Format: in vivo
Settings: intraperitoneally 1 mcg/daily for 7 days, versus vehicle
Experimental: FIGS. 1A and 1B show calcification in injured hearts in a mouse model of PXE treated with vehicle (A) or ARL67156 (B).
ENPP1 inhibitors attenuate calcification in a mouse model of PXE. Mice genetically deficient in ABCC6 (the causative gene in PXE) were subjected to heart injury, and either (A) vehicle or (B) ARL67156 was administered (intraperitoneally 1 mcg/daily) for 7 days.

CCN(CC)c1ncnc2c1ncn2[C@@H]1O[C@H](COP(=O)(O)OP(=O)(O)C(Br)(Br)P(=O)(O)O)[C@@H](O)[C@H]1O [ARL67156]
calcification in the injured region: significant attenuation of calcification
